Key:
[1] = molecular target: Sigma intracellular receptor 2 (Homo sapiens, UniProt Q5BJF2); assay: Displacement of [3H](+)-DTG from recombinant sigma 2 receptor (unknown origin) expressed in baculovirus infected Sf9 cell membranes after 1.5 hrs by scintillation counting analysis
[2] = molecular target: Sigma non-opioid intracellular receptor 1 (Homo sapiens, UniProt Q99720); assay: Displacement of [3H](+)-pentazocine from recombinant sigma 1 receptor (unknown origin) expressed in baculovirus infected Sf9 cell membranes after 1.5 hrs by scintillation counting analysis
[3] = Selectivity ratio of Ki for displacement of [3H](+)-DTG from recombinant sigma 2 receptor (unknown origin) expressed in baculovirus infected Sf9 cell membranes to Ki for displacement of [3H](+)-pentazocine from recombinant sigma 1 receptor (unknown origin) expressed in baculovirus infected Sf9 cell membranes; conditions: Homo sapiens

Sequence of Sigma non-opioid intracellular receptor 1 (Q99720 whole entry): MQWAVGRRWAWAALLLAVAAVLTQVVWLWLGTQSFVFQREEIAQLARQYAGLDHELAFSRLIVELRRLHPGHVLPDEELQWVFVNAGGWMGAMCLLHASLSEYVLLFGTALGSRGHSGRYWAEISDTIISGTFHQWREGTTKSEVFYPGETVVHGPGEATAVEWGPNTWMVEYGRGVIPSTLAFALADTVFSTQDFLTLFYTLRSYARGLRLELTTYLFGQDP
Sequence of Sigma intracellular receptor 2 (Q5BJF2 whole entry): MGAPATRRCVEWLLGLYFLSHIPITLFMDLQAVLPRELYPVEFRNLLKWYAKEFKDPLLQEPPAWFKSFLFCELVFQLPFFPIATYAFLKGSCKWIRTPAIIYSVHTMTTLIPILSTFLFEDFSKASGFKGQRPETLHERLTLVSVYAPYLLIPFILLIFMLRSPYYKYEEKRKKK

Ki [1]	Ki [2]	Ratio Ki [3]	Kd [1]	Kd [2]	SMILES
250 nM	220 nM	1.1	–	–	NC(=O)c1cccc(CNC2CCN(c3ccc(F)c(Cl)c3)C2)c1 (stereo not given)
2950 nM	89 nM	33.2	–	–	Cc1[nH]c2cc(C(F)(F)F)ccc2c(=O)c1CN(C)Cc1ccccc1
–	191 nM	–	–	–	FC(F)(F)c1cccc(-c2ccc(CNCc3cccnc3)o2)c1
2370 nM	127 nM	18.7	–	–	Cc1nn(CCO)cc1CN(C)Cc1csc(-c2ccccc2)n1
985 nM	164 nM	6	–	–	Cc1nn(-c2ccccc2Cl)c(Cl)c1CNCc1cc(F)cc(F)c1
–	–	–	> 1000 nM	> 1000 nM	FC(F)(F)c1cccc(N2CCC(/N=C/c3ccc(Br)cc3)N2)c1 (stereo not given)
–	–	–	> 1000 nM	> 1000 nM	Cc1c(C(=O)NC(CN(C)C)c2ccccc2)cnn1-c1ccc(F)cc1 (stereo not given)

Second part, the molecule before the results:

SMILES	Ki [1]	Ki [2]	Ratio Ki [3]	Kd [1]	Kd [2]
Fc1ccc(CN2CCCN(C(=S)Nc3cc(F)cc(F)c3)C2)cc1	949 nM	23 nM	41.3	–	–
O=C(c1c[nH]c2ccccc12)N1CCC(N2CCc3ccccc3C2)C1 (stereo not given)	–	–	–	> 1000 nM	> 1000 nM
CC(CCc1c[nH]c2ccccc12)NC1CCN(C(=O)C(C)C)CC1 (stereo not given)	–	–	–	> 1000 nM	> 1000 nM
O=C(c1ccc(C(F)(F)F)cc1)N1CCN(Cc2ccccc2)CC1	–	915 nM	–	–	–
NC(Cc1ccccc1)C(=O)N1CCN(c2ccc3nccn3n2)CC1 (stereo not given)	–	–	–	> 1000 nM	> 1000 nM
OC1COCCC1NC1CCN(c2ccc(C(F)(F)F)cn2)CC1 (stereo not given)	15 nM	18 nM	0.8	–	–

Source: ChEMBL document CHEMBL4619813, “Virtual Screening for Ligand Discovery at the σ1 Receptor” (ACS Med Chem Lett, 2020)
